Assay results published in ChEMBL document CHEMBL3045018, “Comparative QSTR study of saturated alcohols based on topological, constitutional, geometrical, and getaway descriptors” (Med Chem Res, 2009).

Tested on: Tetrahymena pyriformis
Test: Toxicity in Tetrahymena pyriformis
Conditions: in vivo

Compared with CC(O)CCl (stereo not given), CCC(C)O (stereo not given) [BUTANOL] is higher in pGI50: 1.2446 for the first, 1.542 for the second.

Compared with OCCCl [2-CHLOROETHANOL], OCCCCl [3-Chloropropanol] is lower in pGI50: 1.5343 for the first, 1.1622 for the second.

Going from CCCC(C)O (stereo not given) [2-PENTANOL] to CC(C)CO [ISOBUTANOL], the pGI50 rises from 1.1596 to 1.3724.

Going from CC(C)CCO [3-METHYLBUTANOL] to CC(C)O [ISOPROPYL ALCOHOL], the pGI50 rises from 1.0359 to 1.8819.

Going from CCC(O)CC [3-PENTANOL] to CCCO [PROPANOL], the pGI50 rises from 1.2437 to 1.7464.

Going from CCO [ALCOHOL] to CCCCO [BUTYL ALCOHOL], the pGI50 falls from 1.9912 to 1.4306.

First: CCC(C)(C)O [AMYLENE HYDRATE]
Second: CC(C)(C)O [TERT-BUTANOL]
The pGI50 of the first is lower: 1.1729 for the first, 1.7911 for the second.

With CO [METHYL ALCOHOL] the pGI50 was 2.6656.
